Values of other authors, collected in PMC5296674, “Evaluation of the Availability and Antioxidant Capacity of Maillard Compounds Present in Bread Crust: Studies in Caco-2 Cells” (Foods, 2017).

System: Caco-2 cells
Design: method as in PMID 19338346

| Structure (SMILES) | Saturation of transport (100 and 500 μM) | HMF transport rate (100 µM HMF solution, 4 h of incubation) |
| --- | --- | --- |
| CC1=C(O)C(=O)C(C)O1 (centres unmarked) [HDMF, 4-hydroxy-2,5-dimethyl-3(2H)-furanone] | saturation of the transport was not observed | – |
| O=Cc1ccc(CO)o1 [HMF, hydroxymethylfurfural] | – | around 20% |
